Test results from US6737383B1, “Herbicidal oxadiazolidines” (priority 1999, dated 2004).

Tests used:
[1] = system: cocklebur; assay: Test B pre/postemergence cocklebur; type: in vivo, Xanthium strumarium
In short: (§1)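 Response is a visual 0-to-10 score relative to untreated plants, where 0 means no effect and 10 means complete control, taken twelve to sixteen days after application. Treatments went onto soil at planting and onto foliage of 1- to 4-leaf plants, using a surfactant-containing non-phytotoxic solvent.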

[2] = system: sugar beet; assay: Test B pre/postemergence sugar beet; type: in vivo, Beta vulgaris
In short: as §1

[3] = system: bedstraw; assay: Test B pre/postemergence bedstraw; type: in vivo, Galium aparine
In short: as §1

[4] = system: duck salad; assay: Test B flood test duck salad; type: in vivo, Heteranthera limosa; conditions: Pre-emergence
In short: (§2)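 Plants were grown to the 2-leaf stage before treatment with test chemical, then held in a greenhouse for twelve to sixteen days. Injury was visually rated against untreated controls on a 0–10 scale, where 0 is no effect and 10 is complete control.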

[5] = system: giant foxtail; assay: Test B pre/postemergence giant foxtail; type: in vivo, Setaria faberii
In short: as §1

[6] = system: corn; assay: Test B pre/postemergence corn; type: in vivo, Zea mays
In short: as §1

[7] = system: soybean; assay: Test B pre/postemergence soybean; type: in vivo, Glycine max
In short: as §1

[8] = system: morningglory; assay: Test B pre/postemergence morningglory; type: in vivo, Ipomoea hederacea
In short: as §1

[9] = system: pigweed; assay: Test B pre/postemergence pigweed; type: in vivo, Amaranthus retroflexus
In short: as §1

[10] = system: smallflower flatsedge; assay: Test B flood test smallflower flatsedge; type: in vivo, Cyperus difformis; conditions: Pre-emergence
In short: as §2

[11] = system: purple nutsedge; assay: Test B pre/postemergence purple nutsedge; type: in vivo, Cyperus rotundus
In short: as §1

[12] = system: bamyardgrass; assay: Test B flood test barnyardgrass; type: in vivo, Echinochloa crus-galli; conditions: Pre-emergence
In short: as §2

[13] = system: rape; assay: Test B pre/postemergence rape; type: in vivo, Brassica napus
In short: as §1

[14] = system: blackgrass; assay: Test B pre/postemergence blackgrass; type: in vivo, Alopecurus myosuroides
In short: as §1

[15] = system: velvetleaf; assay: Test B pre/postemergence velvetleaf; type: in vivo, Abutilon theophrasti
In short: as §1

[16] = system: surinam grass; assay: Test B pre/postemergence surinam grass; type: in vivo, Brachiaria decumbens
In short: as §1

[17] = Postemergence, Rate 125 g/ha, scale 0 to 10, 0 is no effect, 10 is complete control
[18] = Preemergence, Rate 62 g/ha, scale of 0 to 10 where 0 is no effect and 10 is complete control
[19] = Preemergence, Rate 250 g/ha, scale of 0 to 10 where 0 is no effect and 10 is complete control
[20] = Preemergence, Rate 500 g/ha, scale of 0 to 10 where 0 is no effect and 10 is complete control
[21] = Rate 62 g/ha, Postemergence, scale 0 to 10 (0 no effect, 10 complete control)
[22] = Rate 500 g/ha, Postemergence, scale 0 to 10, 0 no effect, 10 complete control
[23] = Rate 250 g/ha, Postemergence, scale of 0 to 10 where 0 is no effect and 10 is complete control
[24] = Rate 1000 g/ha, scale 0 to 10 (0 no effect, 10 complete control)
[25] = Rate 125 g/ha, flood test species, scale 0 to 10 where 0 is no effect and 10 is complete control
[26] = Rate 250 g/ha, flood-test species, scale 0 to 10, 0 is no effect, 10 is complete control
[27] = Rate 500 g/ha, flood test species, scale 0 to 10 (0 no effect, 10 complete control)

CC(C)N(C(=O)n1oc(=O)n(-c2ccc3ccccc3c2)c1=O)c1ccc(Cl)cc1 [Compound 333]
4: Plant response rating, Soybean [7, 22]
0: Plant response rating, Cocklebur [1, 17] | Cocklebur plant response rating [1, 18] | Cocklebur plant response rating (0 to 10 scale) ([1]; Preemergence, Rate 125 g/ha) | Cocklebur plant response rating [1, 19] | Cocklebur plant response rating [1, 20] | Cocklebur plant response rating [1, 21] | Plant response rating, Cocklebur [1, 22] | Plant response rating, Sugarbeets [2, 17] | Sugarbeets plant response rating [2, 18] | Sugarbeets plant response rating (0 to 10 scale) ([2]; Preemergence, Rate 125 g/ha) | Sugarbeets plant response rating [2, 19] | Sugarbeets plant response rating [2, 20] | Sugarbeets plant response rating [2, 21] | Plant response rating, Sugarbeets [2, 22] | Plant response rating, Bedstraw [3, 17] | Bedstraw plant response rating [3, 18] | Bedstraw plant response rating (0 to 10 scale) ([3]; Preemergence, Rate 125 g/ha) | Bedstraw plant response rating [3, 19] | Bedstraw plant response rating [3, 20] | Bedstraw plant response rating [3, 21] | Plant response rating, Bedstraw [3, 23] | Plant response rating, Bedstraw [3, 22] | Ducksalad plant response rating [4, 24] | Ducksalad plant response rating [4, 25] | Ducksalad plant response rating [4, 26] | Ducksalad plant response rating [4, 27] | Plant response rating, Giant foxtail [5, 17] | Giant foxtail plant response rating [5, 18] | Giant foxtail plant response rating (0 to 10 scale) ([5]; Preemergence, Rate 125 g/ha) | Giant foxtail plant response rating [5, 19] | Giant foxtail plant response rating [5, 21] | Plant response rating, Giant foxtail [5, 22] | Plant response rating, Corn [6, 17] | Corn plant response rating [6, 18] | Corn plant response rating (0 to 10 scale) ([6]; Preemergence, Rate 125 g/ha) | Corn plant response rating [6, 19] | Corn plant response rating [6, 20] | Corn plant response rating [6, 21] | Plant response rating, Corn [6, 22] | Soybean plant response rating [7, 18] | Soybean plant response rating (0 to 10 scale) ([7]; Preemergence, Rate 125 g/ha) | Soybean plant response rating [7, 19] | Soybean plant response rating [7, 20] | Plant response rating, Morningglory [8, 17] | Morningglory plant response rating [8, 18] | Morningglory plant response rating (0 to 10 scale) ([8]; Preemergence, Rate 125 g/ha) | Morningglory plant response rating [8, 19] | Morningglory plant response rating [8, 20] | Morningglory plant response rating [8, 21] | Plant response rating, Morningglory [8, 22] | Plant response rating, Redroot pigweed [9, 17] | Redroot pigweed plant response rating [9, 18] | Redroot pigweed plant response rating (0 to 10 scale) ([9]; Preemergence, Rate 125 g/ha) | Redroot pigweed plant response rating [9, 19] | Redroot pigweed plant response rating [9, 20] | Redroot pigweed plant response rating [9, 21] | Plant response rating, Redroot pigweed [9, 22] | S. Flatsedge plant response rating [10, 24] | S. Flatsedge plant response rating [10, 25] | S. Flatsedge plant response rating [10, 26] | S. Flatsedge plant response rating [10, 27] | Plant response rating, Nutsedge [11, 17] | Nutsedge plant response rating [11, 18] | Nutsedge plant response rating (0 to 10 scale) ([11]; Preemergence, Rate 125 g/ha) | Nutsedge plant response rating [11, 19] | Nutsedge plant response rating [11, 20] | Nutsedge plant response rating [11, 21] | Plant response rating, Nutsedge [11, 22] | Barnyardgrass plant response rating [12, 24] | Barnyardgrass plant response rating [12, 25] | Barnyardgrass plant response rating [12, 26] | Barnyardgrass plant response rating [12, 27] | Plant response rating, Rape [13, 17] | Rape plant response rating [13, 18] | Rape plant response rating (0 to 10 scale) ([13]; Preemergence, Rate 125 g/ha) | Rape plant response rating [13, 19] | Rape plant response rating [13, 20] | Rape plant response rating [13, 21] | Plant response rating, Rape [13, 22] | Plant response rating, Blackgrass [14, 17] | Blackgrass plant response rating [14, 18] | Blackgrass plant response rating (0 to 10 scale) ([14]; Preemergence, Rate 125 g/ha) | Blackgrass plant response rating [14, 19] | Blackgrass plant response rating [14, 20] | Blackgrass plant response rating [14, 21] | Plant response rating, Blackgrass [14, 23] | Plant response rating, Blackgrass [14, 22] | Plant response rating, Velvetleaf [15, 17] | Velvetleaf plant response rating [15, 18] | Velvetleaf plant response rating (0 to 10 scale) ([15]; Preemergence, Rate 125 g/ha) | Velvetleaf plant response rating [15, 19] | Velvetleaf plant response rating [15, 20] | Velvetleaf plant response rating [15, 21] | Plant response rating, Velvetleaf [15, 22] | Plant response rating, B. signalgrass [16, 17] | B. signalgrass plant response rating [16, 18] | B. signalgrass plant response rating (0 to 10 scale, 0 is no effect, 10 is complete control) ([16]; Preemergence, Rate 125 g/ha) | B. signalgrass plant response rating [16, 19] | B. signalgrass plant response rating [16, 20] | B. signalgrass plant response rating [16, 21] | Plant response rating, B. signalgrass [16, 23] | Plant response rating, B. signalgrass [16, 22]
2: Giant foxtail plant response rating [5, 20] | Plant response rating, Soybean [7, 17] | Soybean plant response rating [7, 21]
